Measurements taken from the NIST ThermoML archive (doi:10.1016/j.jct.2019.02.001).
Several values for one entry are separate records, joined by “and”; a condition that tells them apart may be missing. Equal values may be shown once. Numbers after ± are expanded uncertainties.

experiment: molar enthalpy of vaporization or sublimation; settings: 298.15 K; Liquid; Static calorimetry

molar enthalpy	SMILES
19.9 ± 0.526 kcal/mol	CCOC(=O)c1cccc(N)c1 [ethyl 3-aminobenzoate]
11.9 kcal/mol and 12.5 kcal/mol	CCCCCCCCCC [decane]

SMILES	molar enthalpy
CCOC(=O)c1ccccc1N [ethyl 2-aminobenzoate]	17 ± 0.311 kcal/mol
